According to patent US20140350273A1, “PEDIATRIC USES OF CABAZITAXEL” (AVENTIS PHARMA S.A., priority 2012, published 2014):
Read-outs that look alike come from different tables or passages of the source.

Test system: human rhabdomyosarcoma RH-30
Assay type: in vivo
Conditions: for Average body weight change in % per mouse at nadir / Drug death (Day of death) / Regressions Complete / Regressions Partial / Tumor free survivors at day 120 / day of nadir / ΔT/ΔC in % (day 27) / Biological interpretation: 18
Protocol: This efficacy may be quantified, for example, as changes in tumor volume for each treated (T) and control (C) group, which are calculated for each animal and each day by subtracting the tumor volume on the day of first treatment (staging day) from the tumor volume on the specified observation day. This allows calculating the tumor growth inhibition: ΔT/ΔC=(median delta T/median delta C)×100. Individual tumor volume changes from baseline are thereafter analyzed by a non-parametric two-way ANOVA-TYPE (with factors: group and repeated days) followed by a post-hoc contrasts analysis, with Bonferroni-Holm adjustment for multiplicity, comparing all treated groups to the control group. […] A probability less than 5% (p<0.05) was considered as significant.
Based on the National Cancer Institute (NCl) standards, a ΔT/ΔC≦40% is the minimal level required to declare activity.
The tumor doubling time (in days; Td) was estimated from the plot of the log linear growth of the control group tumors in exponential growth (100 to 1000 mm^3 range) [T. H. Corbett et al., Cancer, 40: 2660-2680 (1977); F. M. Schabel et al., Cancer Drug Development, Part B, Methods in Cancer Research, 17: 3-51, New York, Academic Press Inc. (1979)].
This efficacy may also be quantified by the number of tumor regressions observed after therapy. Individual mice reporting a tumor volume ≦50% of the Day 0 measurement for two consecutive measurements over a seven day period were considered partial responders (PR). Individual mice lacking palpable tumors (<4×4 mm^2 for two consecutive measurements over a seven day period) were classified as complete responders (CR); a CR that persisted until study completion was considered a tumor-free survivor (TFS).
The animals subjected to the experiment are subcutaneously grafted unilaterally with approximately 30 mg of a tumor fragment on day 0. The animals are implanted with a human tumor xenografted in immunocompromized mice. Several days post tumor implantation, mice are randomized according to their body weight to the different groups of treatments and controls. The animals are observed every day. […] The groups are then weighed once or twice a week until the end of the trial.
The tumors are measured 1 to 5 times a week, depending on the tumor doubling time, until the tumor reaches approximately 1,000 mm^3, or until the animal dies (if this occurs before the tumor reaches 1,000 mm^3). The animals are necropsied immediately after euthanasia or death.
The selected tumor model was a human rhabdomyosarcoma RH-30, xenografted in SCID mice [Douglass E C, et al. Cytogenet Cell Genet. 1987; 45(3-4):14855.].
Treatment solutions were prepared first by mixing 1 volume of ethanolic stock solution and 1 volume of polysorbate 80, then by adding 18 volumes of glucose 5% in water.

[1] = 3.5 mg/kg per injection (total 7.0) IV days 14
[2] = 5.6 mg/kg per injection (total 11.2) IV days 14
[3] = 5.6 mg/kg per injection (total 11.2) IV days 14, listed as CABAZITAXEL
[4] = 9.0 mg/kg per injection (total 18) IV days 14
[5] = 14.5 mg/kg per injection (total 29) IV days 14
[6] = 14.5 mg/kg per injection (total 29) IV days 14, listed as CABAZITAXEL

Compound: CO[C@H]1C(=O)[C@]2(C)[C@@H](OC)C[C@H]3OC[C@@]3(OC(C)=O)[C@H]2[C@H](OC(=O)c2ccccc2)[C@]2(O)C[C@H](OC(=O)[C@H](O)[C@@H](NC(=O)OC(C)(C)C)c3ccccc3)C(C)=C1C2(C)C [Cabazitaxel, 4α-acetoxy-2α-benzoyloxy-5β,20-epoxy-1β-hydroxy-7β,10β-dimethoxy-9-oxo-11-taxen-13α-yl (2R,3S)-3-tert-butoxycarbonyl-amino-2-hydroxy-3-phenylpropionate]
- Average body weight change in % per mouse at nadir [1]: −10.1%
- Drug death (Day of death) [1]: 0/6
- Regressions Complete [1]: 0/6
- Regressions Partial [1]: 0/6
- Tumor free survivors at day 120 [1]: 0/6
- day of nadir [1]: (24) day
- ΔT/ΔC in % (day 27) [1]: 24%
- Biological interpretation (3.5 mg/kg per injection (total 7.0) IV days 14, listed as CABAZITAXEL): Active
- Biological interpretation (3.5 mg/kg per injection (total 7.0) IV days 14, listed as cabazitaxel): active
- Tumor volume changes from baseline: Median (nMad) (3.5 mg/kg, day 18): 307 (35.6)
- Tumor volume changes from baseline: Median (nMad) (3.5 mg/kg, day 22): 418 (258)
- Tumor volume changes from baseline: Median (nMad) (3.5 mg/kg, day 29): 356.5
- Average body weight change in % per mouse at nadir [2]: −15.3%
- Drug death (Day of death) [2]: 0/6
- Regressions Complete [2]: 2/6
- Regressions Partial [2]: 5/6
- Tumor free survivors at day 120 [2]: 0/6
- day of nadir [2]: (28) day
- Biological interpretation [3]: Highly
- ΔT/ΔC in % (day 27) [3]: 0%
- Biological interpretation (5.6 mg/kg per injection (total 11.2) IV days 14, listed as cabazitaxel): highly active
- Tumor volume changes from baseline: Median (nMad) (5.6 mg/kg, day 18): 164 (30.4)
- Tumor volume changes from baseline: Median (nMad) (5.6 mg/kg, day 19): 203 (80.1)
- Tumor volume changes from baseline: Median (nMad) (5.6 mg/kg, day 20): 302.5
- Tumor volume changes from baseline: Median (nMad) (5.6 mg/kg, day 22): 192.5
- Tumor volume changes from baseline: Median (nMad) (5.6 mg/kg, day 27): 0 (130.5)
- Tumor volume changes from baseline: Median (nMad) (5.6 mg/kg, day 29): 106 (147.5)
- Tumor volume changes from baseline: Median (nMad) (5.6 mg/kg, day 33): −85 (117.1)
- Tumor volume changes from baseline: Median (nMad) (5.6 mg/kg, day 39): −139 (113.4)
- Tumor volume changes from baseline: Median (nMad) (5.6 mg/kg, day 41): −157 (113.4)
- Tumor volume changes from baseline: Median (nMad) (5.6 mg/kg, day 43): −104.5
- Tumor volume changes from baseline: Median (nMad) (5.6 mg/kg, day 35): −120 (98.6)
- Average body weight change in % per mouse at nadir [4]: −8.0%
- Biological interpretation [4]: very active
- Drug death (Day of death) [4]: 0/6
- Regressions Complete [4]: 6/6
- Regressions Partial [4]: 6/6
- Tumor free survivors at day 120 [4]: 5/6
- day of nadir [4]: (25) day
- ΔT/ΔC in % (day 27) [4]: 7%
- Biological interpretation (9.0 mg/kg per injection (total 18) IV days 14, listed as CABAZITAXEL): Very
- Tumor volume changes from baseline: Median (nMad) (9 mg/kg, day 18): 138.5
- Tumor volume changes from baseline: Median (nMad) (9 mg/kg, day 29): 62.5 (91.9)
- Tumor volume changes from baseline: Median (nMad) (9 mg/kg, day 33): −129 (142.3)
- Tumor volume changes from baseline: Median (nMad) (9 mg/kg, day 39): −189.5
- Tumor volume changes from baseline: Median (nMad) (9 mg/kg, day 41): −189.5
- Tumor volume changes from baseline: Median (nMad) (9 mg/kg, day 43): −189.5
- Tumor volume changes from baseline: Median (nMad) (9 mg/kg, day 35): −180 (94.9)
- Average body weight change in % per mouse at nadir [5]: −15.0%
- Drug death (Day of death) [5]: 0/6
- Regressions Complete [5]: 6/6
- Regressions Partial [5]: 6/6
- Tumor free survivors at day 120 [5]: 6/6
- day of nadir [5]: (24) day
- Biological interpretation [6]: Highly
- ΔT/ΔC in % (day 27) [6]: <0%
- Biological interpretation (14.5 mg/kg per injection (total 29) IV days 14, listed as cabazitaxel): highly active
- Tumor volume changes from baseline: Median (nMad) (14.5 mg/kg, day 29): −107 (150.5)
- Tumor volume changes from baseline: Median (nMad) (14.5 mg/kg, day 33): −180 (66)
- Tumor volume changes from baseline: Median (nMad) (14.5 mg/kg, day 46): −194 (74.1)
- Tumor volume changes from baseline: Median (nMad) (14.5 mg/kg, day 50): −194 (74.1)
- Tumor volume changes from baseline: Median (nMad) (14.5 mg/kg, day 35): −194 (74.1)
- Tumor volume changes from baseline: Median (nMad) (14.5 mg/kg, day 39): −194 (74.1)
- Tumor volume changes from baseline: Median (nMad) (14.5 mg/kg, day 41): −194 (74.1)
- Tumor volume changes from baseline: Median (nMad) (14.5 mg/kg, day 43): −194 (74.1)
- antitumor activity compared with docetaxel (conclusion of example 1): more active than docetaxel
